From article PMC4279406, “Simultaneous targeting of PI3Kδ and a PI3Kδ-dependent MEK1/2-Erk1/2 pathway for therapy in pediatric B-cell acute lymphoblastic leukemia” (Oncotarget, 2014) come the findings set out here.

Read-outs that look alike come from different tables or passages of the source.

One experiment relates to Raji-R cells. Kind of experiment: Proliferation of rituximab-resistant Raji-R cells (CCK-8). It is filed as cell-based, human. As for the experimental part:
Raji and SU-DHL-6 cells were treated with X-370 for 1 h (left panel) or treated with 0.5 μM X-370 for indicated times (middle panel). Right panel, Raji cells were incubated in fresh medium following treatment with 0.5 μM X-370 for 1 h. Indicated proteins were detected. (B) Raji-R (the rituximab-resistant derivatives of Raji cells) cells were resistant to X-370. The activity of X-370 on the proliferation of Raji parent and Raji-R cells was determined by CCK-8 assay as described in the methods section. (C) X-370 blocked phosphorylation of Akt but not Erk1/2 in Raji-R cells. Raji-R cells were treated with X-370 for 1h and indicated proteins were detected. Data shown are representative from three independent experiments.
Cell viability was assessed using Cell Counting Kit (CCK-8, Dojindo, Japan) following the manufacturer's protocol and OD values were measured with a Spectramax M5 plate reader (Molecular Devices, Sunnyvale, CA)[45].

The next experiment concerns Rh30-Myr-p110β cells. The experiment in a line: Akt phosphorylation in isogenic Rh30-Myr-p110 cells (Western blot). It is filed as cell-based. The settings on record: Homo sapiens, serum-free 12 h, compound 1 h, band intensity, mean of three experiments. The text has this: (§1) To assess the selectivity of X-370 in the context of an isogenic cellular background, we generated a panel of Rh30 human rhabdomyosarcoma cell lines each of which stably expresses a single myristoylated (Myr)-epitope tagged p110 human class I PI3K catalytic subunit, termed as Rh30-Myr-p110α, Rh30-Myr-p110β, Rh30-Myr-p110γ or Rh30-Myr-p110δ. In these cells, endogenous PI3K is not activated under serum-free culture conditions, whereas the ectopically expressed p110 isoforms are membrane-anchored and constitutively active due to myristoylation at N-terminal. Utilizing this cell panel, isoform-specific PI3K activity can be determined for any given inhibitor[25]. These cells were treated with X-370 and phosphorylated Akt was detected as the readout of PI3K activity. X-370 inhibited phosphorylation of Akt at both Thr308 and Ser473 in a dose-dependent manner in four tested cell lines (Figure 2A). […] Similar property was also observed in CAL-101 (Figure S2).
(§2) Cell lysates were probed with indicated antibodies. The IC50 values were calculated based on relative band intensity measured with ImageQuant™ TL (GE Healthcare Life Sciences, Piscataway, NJ) (B). Data shown are mean values from three independent experiments. (C, D, E, F) X-370 blocked stimuli-triggered PI3Kδ activation. MEF cells and THP-1 were starved in serum-free medium for 12 h or 4 h respectively and X-370 were added for an additional 1 h treatment following stimulation of IGF-1 at 100 ng/ml for MEF cells (C), LPA at 10 μM for MEF cells (D), MCP-1 at 100ng/ml for THP-1 (E) and M-CSF at 50 ng/ml for THP-1 (F). Similar results were derived from 3 independent experiments. TEXT PRINTED IN THE PICTURE: (B) X-370: IC50 (μM) in Rh30-Myr-p110s, Akt pT308, PI3Kα: 0.68; IC50 (μM) in Rh30-Myr-p110s, Akt pT308, PI3Kβ: 0.4; IC50 (μM) in Rh30-Myr-p110s, Akt pT308, PI3Kγ: 0.46; IC50 (μM) in Rh30-Myr-p110s, Akt pT308, PI3Kδ: 0.032; IC50 (μM) in Rh30-Myr-p110s, Akt pS473, PI3Kα: 0.53; IC50 (μM) in Rh30-Myr-p110s, Akt pS473, PI3Kβ: 0.29; IC50 (μM) in Rh30-Myr-p110s, Akt pS473, PI3Kγ: 0.23; IC50 (μM) in Rh30-Myr-p110s, Akt pS473, PI3Kδ: 0.02 DOUBTS OF THE COPYIST ABOUT THIS PICTURE: Panel B prints no substance label in the table itself; the label X-370 is taken from the other panels of the same picture, where it is the only substance printed. […]
(§3) Cells were treated as indicated conditions and then subjected to lysate to perform standard Western blot as described previously1. Briefly, whole-cell lysates and SDS-loading buffer diluted cell fractions were analyzed on SDS-PAGE gels. Transfer to nitrocellulose membranes, nonfat milk blocking, probing with indicated primary antibodies and the corresponding HRP-conjugated second antibodies.
(§4) Chemiluminescence were performed and captured using ImageQuant LAS 4000 (GE healthcare Life Sciences, Piscataway, NJ, USA) and band intensity was measure both with ImageQuant™ TL (GE Healthcare Life Sciences) 2. […]
(§5) (also on this page, place not known: PI3Kδ -dependent MEK1/2 - B -cell previously 1. whole -cell SDS -loading SDS -PAGE HRP -conjugated (G E A B Val828 Trp760 Thr750 Met752 Tyr813 affinity pocket specificity pocket hinge Glu826 CAL-101 X-370) […]
(§6) (1 picture or pasted object on this page, not shown here)
(In general: A western blot detects proteins with antibodies after separation by electrophoresis.)

Another experiment deals with Rh30-Myr-p110α cells. The experiment is described as above. The settings on record: Homo sapiens, serum-free 12 h, compound 1 h, band intensity, mean of three experiments. It is filed as cell-based.
Source text: as §1, §2, §3, §4, §5, §6

The term IC50 denotes the midpoint of a concentration-inhibition curve. For the compound `O=C(N1CCCC1)N1CCC(n2cnc3c(-n4c(C(F)F)nc5ccccc54)nc(N4CCOCC4)nc32)CC1` [X-370], the “sensitivity of proliferation compared to parental Raji cells” value in the experiment on Raji-R cells is “resistant”. For the same compound, the IC50 with Rh30-Myr-p110β cells (read-out: IC50 (μM) in Rh30-Myr-p110s, Akt pS473, PI3Kβ) came out at 0.29 µM; with Rh30-Myr-p110β cells (read-out: IC50 (μM) in Rh30-Myr-p110s, Akt pT308, PI3Kβ) it was 0.4 µM; with Rh30-Myr-p110α cells (read-out: IC50 (μM) in Rh30-Myr-p110s, Akt pS473, PI3Kα), 0.53 µM; with Rh30-Myr-p110α cells (read-out: IC50 (μM) in Rh30-Myr-p110s, Akt pT308, PI3Kα), 0.68 µM.
